Measured values: ChEMBL document CHEMBL3621087, “Adamantane amine derivatives as dual acting NMDA receptor and voltage-gated calcium channel inhibitors for neuroprotection” (Medchemcomm, 2014)
Calls of active or inactive are those of the source. The rule behind the calls is not given here.

Legend:
Mus musculus [1] = species: Mus musculus; assay: Inhibition of NMDA receptor in mouse synaptoneurosomes assessed as reduction of NMDA/glycine-induced calcium influx at 100 uM after 30 mins using Fura-2 AM by fluorescence assay relative to control
Mus musculus [2] = species: Mus musculus; assay: Inhibition of voltage-gated calcium channel in mouse synaptoneurosomes assessed as reduction of KCl-induced calcium influx at 100 uM after 30 mins using Fura-2 AM by fluorescence assay relative to control

Row | SMILES | inhibition (Mus musculus [1]) | inhibition (Mus musculus [2])
1 | COc1ccc(CNC23CC4CC(CC(C4)C2)C3)cc1 | 79.2% | 71.2%
2 | c1ccc(CNC23OC4C5C6CC(C7C6C4C72)C53)cc1 (stereo not given) | 22.2% | 38.4%
3 | O=[N+]([O-])c1cccc(CNC23CC4CC(CC(C4)C2)C3)c1 | 36.6% | 14.3%
4 | Nc1cccc(CNC23CC4CC(CC(C4)C2)C3)c1 | 48.3% | 30%
5 | COCCOC(=O)C1=C(C)NC(C)=C(C(=O)OC(C)C)C1c1cccc([N+](=O)[O-])c1 (stereo not given) | inactive | 100%
6 | Nc1ccccc1CNC12CC3CC(CC(C3)C1)C2 | 31.3% | 37.1%
7 | Nc1ccc(CNC23CC4CC(CC(C4)C2)C3)cc1 | 50.4% | 49.5%
8 | O=[N+]([O-])c1ccccc1CNC12CC3CC(CC(C3)C1)C2 | 60.6% | 49.2%
9 | c1ccc(CCNC23CC4CC(CC(C4)C2)C3)cc1 | 89.5% | 42%
10 | CC12CC3CC(C)(C1)CC(N)(C3)C2 | 92.5% | 5.2%
11 | C[C@]12N[C@H](Cc3ccccc31)c1ccccc12 | 100% | inactive
12 | NC12CC3CC(CC(C3)C1)C2 | 84.6% | 2.76%
13 | COc1cccc(CNC23CC4CC(CC(C4)C2)C3)c1 | 70.2% | 44.7%
14 | c1ccc(CNC23CC4CC(CC(C4)C2)C3)cc1 | 66.7% | 39.6%
15 | O=[N+]([O-])c1ccc(CNC23CC4CC(CC(C4)C2)C3)cc1 | 74.8% | 85.7%
